Results on 2 compounds are retold here after publication PMC7397142, “Discovery of Novel Tankyrase Inhibitors through Molecular Docking-Based Virtual Screening and Molecular Dynamics Simulation Studies” (Molecules, 2020).

Experiment [1] has as its target T1, tankyrase 2 (TNKS2) (Homo sapiens, UniProt Q9H2K2).
T1 construct: catalytic fragment (human, recombinant, residues 849–1166)
The experiment in a line: immunochemical dot-blot assay of PAR accumulation, […] NAD+; 4PL fit gave […]. Type of experiment: biochemical.

The target in experiment [2] is T1, tankyrase 2 (TNKS2). Described as above. The format is biochemical. The source holds these as a separate data set.

Where two headings read alike, the source gives them in different places. Bounds are passed on as bounds.

T1 sequence (Q9H2K2 849-1166): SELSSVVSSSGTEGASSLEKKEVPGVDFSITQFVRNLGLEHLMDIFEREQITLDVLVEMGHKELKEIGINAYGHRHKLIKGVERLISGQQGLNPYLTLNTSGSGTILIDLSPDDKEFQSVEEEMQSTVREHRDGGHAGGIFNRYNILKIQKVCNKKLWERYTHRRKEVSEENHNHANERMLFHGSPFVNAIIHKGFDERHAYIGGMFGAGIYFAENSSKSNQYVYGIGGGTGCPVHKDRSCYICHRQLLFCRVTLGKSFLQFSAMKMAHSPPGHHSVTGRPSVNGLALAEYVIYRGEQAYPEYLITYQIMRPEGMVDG

A word on the IC50: it is the concentration that inhibits the measured activity by half. With `O=C(NCCNC(=O)c1cnccn1)c1ccc(-c2cc3ccccc3oc2=O)cc1` [A1], the IC50 against tankyrase 2 (TNKS2) [1] is under 0.01 µM.
As to `COc1ccc2oc(=O)c(-c3ccc(OCC(=O)NCc4cccnc4)cc3)cc2c1` [A3], the IC50 on tankyrase 2 (TNKS2) [2] is under 10 µM.
